Results on 1 compound are retold here after publication PMC9945734 (BMC Medicine, 2023).

Experiment [1] concerns osteoclasts in mouse femurs. The experiment can be described thus: TRAP staining of bone tissue sections. Format: in vivo, Balb/c nude mice. Conditions: compared to the vehicle group. As for the experimental part: The procedure for TRAP staining in tissues was described in our previous study. Briefly, deparaffinized and hydrated bone sections were incubated in 0.2 M acetic acid for 20 min and then in 0.2 M acetic acid containing the fast red TR salt (1.1 mg/mL) and naphthol AS-MX phosphate (0.5 mg/mL) for about 45 min at 37°C. When TRAP-positive cells turn red, as monitored using microscopy, slides were counterstained with hematoxylin and mounted with coverslips using glycerin. Slides were then scanned and analyzed as described above.

Experiment [2] relates to MMP9. The experiment can be described thus: MMP9 expression by western blotting and qRT-PCR. It is filed as cell-based, human. Conditions: KLF5^K369Q-expressing cells (PC-3-KQ). On the procedure: Total RNA was extracted from cells using the Eastep Super total RNA extraction kit (Cat #: LS1040, Promega, Shanghai, China) and quantified using the NanoDrop One (Thermo Fisher Scientific, Madison, USA). Single-strand cDNA was synthesized from 1 μg of total RNA using the HiScript III All-in-one RT SuperMix kit (Cat #: R333-01, Vazyme, Nanjing, China). For qRT-PCR, the cDNA template was mixed with the SYBR Green reagent in enzyme-free water, and the Qtower3 touch system (Analytik Jena, Jena, Germany) was used for PCR with the following program: initial denaturation at 95°C for 5 min, 40 cycles of 95°C for 30 s, 60°C for 30 s, and 72 °C for 30 s, and a final melting for 15 s. GAPDH was used as an internal control. […].
Cells in 6-well plates were washed with cold PBS and collected in a lysis buffer containing phosphatase and protease inhibitors (Cat #: P1045, Beyotime) to extract proteins. After centrifugation for 10 min at 4°C in a refrigerated centrifuge, the supernatant was collected and mixed with the 4× loading buffer, boiled in a metal heat bath at 100°C for 10 min, and then subjected to 10% SDS-PAGE. Proteins were transferred onto an activated PVDF membrane (0.45 μm pore-size, Cat #: IPVH00010, Millipore, Carrigtwohill, Ireland). […]
(A western blot detects proteins with antibodies after separation by electrophoresis.)

Consider `CC(=O)Oc1ccccc1C(=O)Nc1ncc([N+](=O)[O-])s1` [Nitazoxanide], for which the “number of TRAP^+ cells in mouse femurs” value in experiment [1] is on record as “significantly reduced the number of TRAP^+ cells”. In addition, in experiment [2], the “MMP9 expression (protein and mRNA)” value is recorded as “decreased MMP9 expression in a dose-dependent manner”.
